According to ChEMBL document CHEMBL1122214, “omicron-Quinone formation in the biochemical oxidation of the antitumor drug N2-methyl-9-hydroxyellipticinium acetate” (J Med Chem, 1983):

How the values were obtained:
L1210 = test: In vitro antitumor activity against murine leukemia L1210 after 48 hour; format: functional; details: Mus musculus, L1210, 48 h; read-out: ID50 (the source's name)
[1] = Compound was evaluated for its pKa (weak acid) value; format: physicochemical

| SMILES | IC50 (L1210) | pKa [1] |
| --- | --- | --- |
| Cc1c2cc[n+](C)cc2c(C)c2c3c([nH]c12)C=CC(=O)C3=O | 9.6 µM | 5.1 |
| COC1=CC(=O)C(=O)c2c1nc1c(C)c3ccn(C)cc3c(C)c21 | 5.8 µM |  |
| Cc1c2c(c(C)c3c[n+](C)ccc13)C1=CC(=O)C=CC1=N2 | 0.05 µM |  |
